# Legend:
# Rattus norvegicus [1] = test: Ulcerogenicity in Rattus norvegicus Sprague-Dawley (rat) stomach assessed as ulcer score at 50 mg/kg administered via intragastrically after 6 hr by hematoxylin and eosin staining; format: toxicity, organism-based; design: dose 50 mg/kg, route intragastric; details: in vivo, po
# Rattus norvegicus [2] = test: Ulcerogenicity in Rattus norvegicus Sprague-Dawley (rat) stomach assessed as appearance of cone shape gastric mucosa layer at 50 mg/kg administered via intragastrically after 6 hr by hematoxylin and eosin staining relative to untreated control; format: toxicity, organism-based; design: dose 50 mg/kg, route intragastric; details: in vivo, po
# Rattus norvegicus [3] = test: Ulcerogenicity in Rattus norvegicus Sprague-Dawley (rat) stomach assessed as decrease in gastric mucosa layer thickness at 50 mg/kg administered via intragastrically after 6 hr by hematoxylin and eosin staining relative to untreated control; format: toxicity, organism-based; design: dose 50 mg/kg, route intragastric; scale not given: the % may be the effect or the level left; details: in vivo, po
# Rattus norvegicus [4] = test: Anti-inflammatory activity in Rattus norvegicus Sprague-Dawley (rat) assessed as inhibition of carrageenan-induced paw edema at 10 mg/kg administered 1 hr prior to carrageenan challenge measured at 4 hr relative to diclofenac; format: functional
# Rattus norvegicus [5] = test: Anti-inflammatory activity in Rattus norvegicus Sprague-Dawley (rat) assessed as inhibition of carrageenan-induced paw edema at 10 mg/kg administered 1 hr prior to carrageenan challenge measured at 1 hr relative to control; format: functional
# Rattus norvegicus [6] = test: Anti-inflammatory activity in Rattus norvegicus Sprague-Dawley (rat) assessed as inhibition of carrageenan-induced paw edema at 10 mg/kg administered 1 hr prior to carrageenan challenge measured at 4 hr relative to control; format: functional
# Rattus norvegicus [7] = test: Anti-inflammatory activity in Rattus norvegicus Sprague-Dawley (rat) assessed as inhibition of carrageenan-induced paw edema at 10 mg/kg administered 1 hr prior to carrageenan challenge measured at 2 hr relative to control; format: functional
smiles,measurement,setting,value
Cc1cccc(C)c1Nc1ccc(=O)[nH]n1,UI,Rattus norvegicus [1],1.8
O=c1ccc(Nc2ccccc2Br)n[nH]1,UI,Rattus norvegicus [1],4.2
COc1ccc2c(c1)c(CC(=O)O)c(C)n2C(=O)c1ccc(Cl)cc1 [INDOMETHACIN],Activity,Rattus norvegicus [2],Toxic
same,Activity,Rattus norvegicus [3],20%
same,UI,Rattus norvegicus [1],7.2
O=C(O)c1ccccc1Oc1ccc(=O)[nH]n1,UI,Rattus norvegicus [1],2
O=C(O)Cc1ccccc1Nc1c(Cl)cccc1Cl [DICLOFENAC],inhibition in vivo at 10 mg/kg,Rattus norvegicus [4],100%
same,inhibition in vivo at 10 mg/kg,Rattus norvegicus [5],65.3%
same,inhibition in vivo at 10 mg/kg,Rattus norvegicus [6],78.3%
same,inhibition in vivo at 10 mg/kg,Rattus norvegicus [7],73.5%

# Source: ChEMBL document CHEMBL3044823, “Design, synthesis, and evaluation of anti-inflammatory and ulcerogenicity of novel pyridazinone derivatives” (Med Chem Res, 2012)
